Assay results reported in ChEMBL document CHEMBL1201862, “PubChem BioAssay data set” (2004).
Activity calls are given as the source filed them.

Experiments:
[1] = microbe, parasite or virus in culture; assay type: functional; conditions: Mycobacterium tuberculosis
[2] = HEp-2 cell cytotoxicity, dose response, cytotoxicity control for RSV inhibitor project, HTS (AID 2410); assay type: functional; conditions: human respiratory syncytial virus
Protein skinhead-1 = molecular target: T1, Protein skinhead-1 (Caenorhabditis elegans, UniProt P34707); assay type: functional
T1 sequence (P34707 whole entry): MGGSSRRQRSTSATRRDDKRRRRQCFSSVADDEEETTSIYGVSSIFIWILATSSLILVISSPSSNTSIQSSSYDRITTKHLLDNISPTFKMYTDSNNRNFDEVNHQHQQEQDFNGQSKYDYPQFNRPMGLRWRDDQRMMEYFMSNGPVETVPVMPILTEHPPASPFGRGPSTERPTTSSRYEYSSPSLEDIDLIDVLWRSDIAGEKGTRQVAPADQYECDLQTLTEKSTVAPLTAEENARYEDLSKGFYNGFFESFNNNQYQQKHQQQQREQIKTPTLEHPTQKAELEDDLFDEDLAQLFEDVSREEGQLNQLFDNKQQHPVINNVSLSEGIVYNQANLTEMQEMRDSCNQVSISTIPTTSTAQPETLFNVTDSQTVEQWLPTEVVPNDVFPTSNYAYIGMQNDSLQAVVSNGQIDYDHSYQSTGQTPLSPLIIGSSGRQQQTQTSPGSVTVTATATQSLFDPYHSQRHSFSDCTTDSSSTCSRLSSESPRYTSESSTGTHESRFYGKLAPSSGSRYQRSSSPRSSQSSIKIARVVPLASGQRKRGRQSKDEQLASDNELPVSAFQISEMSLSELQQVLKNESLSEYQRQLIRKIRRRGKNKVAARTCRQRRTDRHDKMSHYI

Nonstructural protein 1 = Nonstructural protein 1 (Influenza A virus, UniProt Q194T2); assay type: functional, Influenza A virus (A/California/07/2009(H1N1))
Streptokinase A = molecular target: T2, Streptokinase A (Streptococcus pyogenes serotype M1, UniProt P10520); test: S. pyogenes streptokinase expression inhibitors, potency, dose response, plasminogen activation absorbance, OD405 (AID 1914); assay type: functional, Streptococcus pyogenes M1 GAS;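 also: secreted streptokinase activity via plasminogen activation per viability signal from cell pellet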
T2 sequence (P10520 whole entry): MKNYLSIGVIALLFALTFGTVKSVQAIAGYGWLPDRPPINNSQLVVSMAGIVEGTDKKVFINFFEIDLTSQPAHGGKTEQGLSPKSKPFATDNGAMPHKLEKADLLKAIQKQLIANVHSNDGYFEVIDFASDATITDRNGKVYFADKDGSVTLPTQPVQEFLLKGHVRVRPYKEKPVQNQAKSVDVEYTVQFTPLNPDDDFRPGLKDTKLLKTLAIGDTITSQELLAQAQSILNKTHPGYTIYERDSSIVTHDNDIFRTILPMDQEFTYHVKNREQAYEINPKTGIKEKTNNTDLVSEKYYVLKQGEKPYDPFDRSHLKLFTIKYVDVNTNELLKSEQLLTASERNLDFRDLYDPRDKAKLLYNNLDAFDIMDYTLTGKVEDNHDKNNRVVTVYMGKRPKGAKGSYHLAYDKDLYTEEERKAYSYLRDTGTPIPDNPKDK

[3] = system: Streptococcus sp. 'group A'; test: growth inhibition of control SK(-) GAS strain, dose response, counter-screen for streptokinase expression inhibitor project, luminescence, kanamycin, BacTiterGlo, confirmation (AID 1900); assay type: functional, organism-based
Streptococcus = test: Group A Streptococcus viability loss, dose response, counter-screen for streptokinase expression inhibitor project, luminescence, BacTiterGlo (AID 1915); assay type: functional, organism-based;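 also: potency for reduction of bacterial viability or growth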
H9c2 = test: cells; assay type: functional, cell-based; conditions: Rattus norvegicus, H9c2, Myocardium;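 also: confirmatory concentration-response retest of ultra-high-throughput screening hits for modulation of myocardial damage; cell death induced by hydrogen peroxide oxidative stress; compound pretreatment for 60 min then peroxide exposure for 2 h; potency is for protecting the cells against peroxide damage rather than for killing them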
[4] = inhibitors of intracellular T. cruzi replication, confirmation, NIH3T3 host cells, beta-gal luminescence (AID 2044); assay type: functional, cell-based;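 also: intracellular parasites grown in NIH/3T3 mouse fibroblasts as host cells; luminescent beta-galactosidase reporter signal from transgenic T. cruzi replicating inside host cells; inhibitors lower the luminescence signal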
[5] = NIH-3T3 fibroblast cytotoxicity, dose response, cytotoxicity control, cell-based, fluorescence, Alamar Blue, secondary assay (AID 2327); assay type: functional;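 also: NIH-3T3 mouse fibroblasts cultured with fluconazole at 8 µg/mL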
[6] = Luminescence Cell-Based Dose Retest to Confirm Inhibitors of Cancer Stem Cells. [Related pubchem assays (depositor defined):AID2717, AID2721]; assay type: functional; conditions: Homo sapiens
[7] = C. albicans growth with fluconazole, confirmation, fluorescence, retest (AID 2467); assay type: functional, cell-based
[8] = cytotoxicity toward NIH3T3 fibroblasts, dose response, counter-screen, cell-based, ATP luminescence, mouse fibroblasts (AID 2010); assay type: functional;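 also: cells exposed to compound for about 90 hours before reading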
[9] = Luminescence Cell-Based Dose Response HTS to Identify Inhibitors of 5'UTR Stem-Loop Driven Prion Protein mRNA Translation in H4 Neuroglioblastoma Cells. [Related pubchem assays: 1827 (Project Summary), 1813 (Primary HTS)]; assay type: functional
[10] = inhibitors of firefly luciferase expression or activity, dose response, H4 neuroglioma cells, luminescence (AID 1990); assay type: functional, cell-based
[11] = inhibitors of SNCA 5'UTR-driven reporter translation, confirmation, H4 neuroglioma cells, luminescence (AID 1988); assay type: functional, cell-based
[12] = molecular target: T3, Replicative DNA helicase DnaB (Mycobacterium tuberculosis, UniProt P9WMR3); test: DnaB intein splicing inhibitors, dose response, biochemical, cell-free fluorescence (AID 449749); assay type: functional
T3 sequence (P9WMR3 whole entry): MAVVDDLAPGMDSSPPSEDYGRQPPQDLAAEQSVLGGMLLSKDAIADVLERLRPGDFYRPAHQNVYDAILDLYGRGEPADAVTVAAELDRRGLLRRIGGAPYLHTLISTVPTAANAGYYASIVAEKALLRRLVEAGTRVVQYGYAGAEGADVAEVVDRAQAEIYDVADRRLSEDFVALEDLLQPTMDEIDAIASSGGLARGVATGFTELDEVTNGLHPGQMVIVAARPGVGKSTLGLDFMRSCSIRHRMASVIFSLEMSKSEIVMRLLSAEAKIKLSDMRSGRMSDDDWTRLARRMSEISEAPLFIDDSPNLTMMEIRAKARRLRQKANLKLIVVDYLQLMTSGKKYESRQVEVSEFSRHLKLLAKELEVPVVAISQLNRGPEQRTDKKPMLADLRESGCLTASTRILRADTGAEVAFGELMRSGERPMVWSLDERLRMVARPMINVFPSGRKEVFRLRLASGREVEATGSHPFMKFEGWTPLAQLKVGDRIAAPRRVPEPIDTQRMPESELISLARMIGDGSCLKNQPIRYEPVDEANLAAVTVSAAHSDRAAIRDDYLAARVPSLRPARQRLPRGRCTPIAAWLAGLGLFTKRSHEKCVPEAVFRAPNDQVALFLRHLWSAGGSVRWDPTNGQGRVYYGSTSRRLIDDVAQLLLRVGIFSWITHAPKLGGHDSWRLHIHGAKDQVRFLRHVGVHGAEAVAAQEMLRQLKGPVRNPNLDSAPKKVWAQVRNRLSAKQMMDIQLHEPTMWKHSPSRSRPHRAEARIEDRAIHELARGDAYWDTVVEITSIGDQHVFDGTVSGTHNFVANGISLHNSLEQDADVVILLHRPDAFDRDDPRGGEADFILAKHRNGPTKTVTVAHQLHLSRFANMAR

Protein RecA = molecular target: T4, Protein RecA (Mycobacterium tuberculosis, UniProt P9WHJ3); test: Fluorescence Cell-Free Homogeneous Dose Retest to Identify Inhibitors of RecA-Intein Splicing Activity. [Related pubchem assays (depositor defined):AID2097, AID2223, AID489010, AID492950]; assay type: functional
T4 sequence (P9WHJ3 whole entry): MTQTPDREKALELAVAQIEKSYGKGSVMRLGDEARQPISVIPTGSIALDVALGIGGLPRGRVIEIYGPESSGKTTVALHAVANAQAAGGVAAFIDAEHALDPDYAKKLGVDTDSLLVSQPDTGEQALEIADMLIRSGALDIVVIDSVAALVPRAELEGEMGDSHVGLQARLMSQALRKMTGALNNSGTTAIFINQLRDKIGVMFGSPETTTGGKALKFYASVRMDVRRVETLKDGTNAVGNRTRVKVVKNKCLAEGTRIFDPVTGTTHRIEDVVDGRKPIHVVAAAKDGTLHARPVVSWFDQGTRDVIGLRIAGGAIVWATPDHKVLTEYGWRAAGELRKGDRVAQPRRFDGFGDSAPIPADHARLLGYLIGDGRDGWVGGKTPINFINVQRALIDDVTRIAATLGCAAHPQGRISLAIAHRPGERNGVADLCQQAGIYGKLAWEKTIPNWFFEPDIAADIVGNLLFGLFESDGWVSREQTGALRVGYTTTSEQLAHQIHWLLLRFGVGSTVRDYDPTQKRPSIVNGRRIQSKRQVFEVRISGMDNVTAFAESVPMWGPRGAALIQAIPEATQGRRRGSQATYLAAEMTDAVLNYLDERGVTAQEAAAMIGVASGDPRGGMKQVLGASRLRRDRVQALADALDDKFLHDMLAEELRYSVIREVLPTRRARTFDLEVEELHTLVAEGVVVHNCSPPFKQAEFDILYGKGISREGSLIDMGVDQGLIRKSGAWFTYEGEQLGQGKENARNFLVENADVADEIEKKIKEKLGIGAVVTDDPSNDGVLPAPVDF

Sequence of Nonstructural protein 1 (Q194T2 whole entry): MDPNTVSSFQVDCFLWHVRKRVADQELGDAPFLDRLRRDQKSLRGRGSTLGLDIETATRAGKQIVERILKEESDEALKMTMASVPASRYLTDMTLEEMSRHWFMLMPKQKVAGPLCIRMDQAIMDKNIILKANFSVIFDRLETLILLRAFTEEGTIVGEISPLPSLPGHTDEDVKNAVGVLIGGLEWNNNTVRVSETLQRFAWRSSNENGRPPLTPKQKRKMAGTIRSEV

CCc1noc(C)c1C(=O)Nc1nc(-c2ccc(F)cc2)c(C)s1
CC50 [1]: > 40 µM (active)

O=C(NCCOc1ccc(Cl)cc1)c1ccc2ccccc2n1
CC50 [2]: 20.9 µM (active) | IC50 (Protein skinhead-1): > 100 µM (inactive)

O=C1c2ccccc2-c2onc3c(N4CCN(CCO)CC4)cc(N4CCN(C(=O)c5ccco5)CC4)c1c23
IC50 (Nonstructural protein 1): 9.93 µM (active)

CCCCCn1c(N)c(-c2nc3ccccc3s2)c2c([N+](=O)[O-])nn(CC)c(=O)c21
EC50 (Streptokinase A): > 150 µM (not active) | IC50 (Nonstructural protein 1): > 50 µM (active) | EC50 [3]: 6.03 µM (active) | EC50 (Streptococcus): > 150 µM (not active)

Cc1ccc(C(C(=O)NCc2ccccc2)N(Cc2ccco2)C(=O)c2snc(C(N)=O)c2N)o1 (stereo not given)
IC50 (H9c2): > 79 µM (inactive)

CCC(c1nnnn1Cc1ccco1)N(Cc1cc2cc(C)cc(C)c2nc1O)CC1CCCO1 (stereo not given)
IC50 (H9c2): > 79 µM (inactive)

CC(C)OC(=O)C(=O)NNc1ccccc1
EC50 [4]: 0.792 µM (active) | EC50 [5]: 1.21 µM (active) | AC50 [6]: 0.731 µM (active) | EC50 [7]: > 38 µM (not active) | EC50 [8]: < 6 µM (inconclusive)

Cc1cccc(OCCn2nc(C(=O)O)c3ccccc3c2=O)c1
IC50 (H9c2): > 79 µM (inactive)

CCCOP(=O)(OCCC)c1c([N+](=O)[O-])cc(C(F)(F)F)cc1[N+](=O)[O-]
CC50 [1]: 24.2 µM (active)

CC(OC(=O)CCc1nc(O)c2ccccc2n1)C(=O)NC1CCCC1 (stereo not given)
IC50 (H9c2): 30.3 µM (inactive)

COc1ccc(CNC(=O)c2ccc(Cn3nc(C)c([N+](=O)[O-])c3C)o2)cc1
IC50 (H9c2): > 79 µM (inactive)

O=C(CCS(=O)(=O)c1ccccc1)Nc1nnc(C(F)(F)F)s1
EC50 [5]: > 160 µM (inactive) | EC50 [7]: 0.302 µM (active)

Cc1cc(N2C(=O)C(O)=C(C(=O)c3cc4ccccc4o3)C2c2cccs2)no1 (stereo not given)
EC50 [5]: 70.9 µM (active) | EC50 [7]: 1.17 µM (active)

Cc1ccccc1NC(=O)CSc1nn2c(=O)c(C)nnc2s1
IC50 (Nonstructural protein 1): 10.5 µM (active)

CCOc1ccc(N2CCc3c(C)nc(SC)nc32)cc1
CC50 [1]: 34.9 µM (active)

COc1ccccc1NC(=O)Nc1nc(CC(=O)Nc2ccc(N(C)C)cc2)cs1
IC50 (Nonstructural protein 1): 26.9 µM (active)

Oc1ccc(NCc2nnc(O)c3ccccc23)cc1
IC50 (H9c2): > 79 µM (inactive)

O=C(CCc1nc(O)c2ccccc2n1)NNC(=O)c1ccccc1Cl
IC50 (H9c2): 16.2 µM (active)

CCOC(=O)c1ccc(NC(=O)Nc2ccn(C)n2)cc1
EC50 [5]: > 150 µM (inconclusive) | EC50 [7]: 4.84 µM (active)

CCCCN(C)C(=O)Cc1c(OC)ccc2cc(Br)ccc12
CC50 [1]: > 40 µM (active)

O=C(CC(NCCN1CCOCC1)C(=O)O)Nc1cccc(Cl)c1 (stereo not given)
EC50 [5]: 86.4 µM (active) | EC50 [7]: > 38 µM (not active)

Cc1c(C(=O)Nc2nc3ccccc3[nH]2)oc2c(Cl)cccc12
EC50 [4]: 1.68 µM (active) | EC50 [8]: > 60 µM (not active) | CC50 [1]: 32.4 µM (active) | EC50 [3]: 1.72 µM (active) | EC50 (Streptococcus): 8.37 µM (active)

CN(C)c1ccc(C=NN2CCCCCC2)cc1
IC50 (Nonstructural protein 1): 48.1 µM (active)

CCCCN(Cc1nc(O)c2ccccc2n1)C(=O)CN1C(=O)NC2(CCCCC2)C1=O
IC50 (H9c2): 16.4 µM (active)

Nc1nonc1-n1nnc(C(=O)N/N=C/c2ccccn2)c1CNc1ccccc1
IC50 (H9c2): 18.1 µM (active)

O=C(Nc1cccc(/N=C/c2cc(Cl)cc(Br)c2O)c1)c1ccco1
IC50 (H9c2): 12.3 µM (active)

COc1ccccc1C(=O)NCC(=O)N/N=C/c1cc(Br)ccc1OC(=O)/C=C\c1ccco1
IC50 (H9c2): > 79 µM (inactive) | EC50 [9]: 12 µM (active) | EC50 [10]: 11.9 µM (active) | EC50 [11]: 11 µM (active)

O=C(O)c1cccc(N/N=C(\N=Nc2ccccc2)c2ccccc2)c1
IC50 (Nonstructural protein 1): 34.5 µM (active) | AC50 [12]: 7.75 µM (active) | AC50 [6]: 2.45 µM (active) | EC50 (Protein RecA): 51.1 µM (active)
